Measurements from the supplement of paper PMC10307832.

What was measured:
Experiment in all cases: relative viability (nuclei count vs DMSO), 5 days (fraction); higher = more cells survive
BEN = tested on: BEN
Outline: (§1)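 The day after seeding in 1536-well plates, lung cancer cell lines were treated by pin tool with a single drug, or with a fixed anchor-drug dose together with five library-drug doses (not always all listed) in √10 steps. After 5 days, a combined fix-and-stain solution (final 0.05% Triton X-100, 1% formaldehyde, 1 ug/ml Hoechst) was added. Nuclei counted on 4× images gave relative viability as treated counts over vehicle counts, reported as the median of duplicate plates.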

NCI-H441 = tested on: NCI-H441
Outline: as §1

NCI-H23 = tested on: NCI-H23
Outline: as §1

NCI-H727 = tested on: NCI-H727
Outline: as §1

NCI-H2087 = tested on: NCI-H2087
Outline: as §1

NCI-H2023 = tested on: NCI-H2023
Outline: as §1

NCI-H2347 = tested on: NCI-H2347
Outline: as §1

LOU-NH91 = tested on: LOU-NH91
Outline: as §1

NCI-H1993 = tested on: NCI-H1993
Outline: as §1

EMC-BAC-2 = tested on: EMC-BAC-2
Outline: as §1

HARA = tested on: HARA
Outline: as §1

HCC-44 = tested on: HCC-44
Outline: as §1

NCI-H522 = tested on: NCI-H522
Outline: as §1

NCI-H838 = tested on: NCI-H838
Outline: as §1

NCI-H647 = tested on: NCI-H647
Outline: as §1

NCI-H3122 = tested on: NCI-H3122
Outline: as §1

NCI-H650 = tested on: NCI-H650
Outline: as §1

NCI-H1395 = tested on: NCI-H1395
Outline: as §1

NCI-H596 = tested on: NCI-H596
Outline: as §1

NCI-H2126 = tested on: NCI-H2126
Outline: as §1

201T = tested on: 201T
Outline: as §1

LCLC-103H = tested on: LCLC-103H
Outline: as §1

Work on `COc1nc(C)cnc1NS(=O)(=O)c1cccnc1-c1ccc(-c2nnco2)cc1` [Zibotentan] + N=C(N)NC(=N)NCCc1ccccc1 [Phenformin] (partner 250 µM) yielded a relative viability (BEN; first compound 0.08 µM) of 0.278, a relative viability (BEN; first compound 0.253 µM) of 0.261 and a relative viability (BEN; first compound 0.8 µM) of 0.241. The relative viability (BEN; first compound 2.53 µM) was 0.264, the relative viability (NCI-H441; first compound 0.08 µM) was 1.07 and the relative viability (NCI-H441; first compound 0.253 µM) was 0.665. For the same compound, the relative viability (NCI-H441; first compound 0.8 µM) was 0.926, the relative viability (NCI-H441; first compound 2.53 µM) was 0.895 and the relative viability (NCI-H23; first compound 0.08 µM) was 0.85. For the same compound, the relative viability (NCI-H23; first compound 0.253 µM) was 0.762, the relative viability (NCI-H23; first compound 0.8 µM) was 0.761 and the relative viability (NCI-H23; first compound 2.53 µM) was 0.86. It also gave a relative viability (NCI-H727; first compound 0.08 µM) of 0.41, a relative viability (NCI-H727; first compound 0.253 µM) of 0.519 and a relative viability (NCI-H727; first compound 0.8 µM) of 0.553. The relative viability (NCI-H727; first compound 2.53 µM) was 0.627, the relative viability (NCI-H2087; first compound 0.08 µM) was 0.423 and the relative viability (NCI-H2087; first compound 0.253 µM) was 0.428. The relative viability (NCI-H2087; first compound 0.8 µM) was 0.54, the relative viability (NCI-H2087; first compound 2.53 µM) was 0.486 and the relative viability (NCI-H2023; first compound 0.08 µM) was 0.407. For the same compound, the relative viability (NCI-H2023; first compound 0.253 µM) was 0.321, the relative viability (NCI-H2023; first compound 0.8 µM) was 0.416 and the relative viability (NCI-H2023; first compound 2.53 µM) was 0.451. For the same compound, the relative viability (NCI-H2347; first compound 0.253 µM) was 0.434, the relative viability (NCI-H2347; first compound 0.8 µM) was 0.375 and the relative viability (NCI-H2347; first compound 2.53 µM) was 0.444. For the same compound, the relative viability (LOU-NH91; first compound 0.08 µM) was 0.712, the relative viability (LOU-NH91; first compound 0.253 µM) was 0.683 and the relative viability (LOU-NH91; first compound 0.8 µM) was 0.798. For the same compound, the relative viability (LOU-NH91; first compound 2.53 µM) was 0.819, the relative viability (NCI-H1993; first compound 0.08 µM) was 0.461 and the relative viability (NCI-H1993; first compound 0.253 µM) was 0.541. The relative viability (NCI-H1993; first compound 0.8 µM) was 0.46, the relative viability (NCI-H1993; first compound 2.53 µM) was 0.514 and the relative viability (EMC-BAC-2; first compound 0.08 µM) was 0.541. For the same compound, the relative viability (EMC-BAC-2; first compound 0.8 µM) was 0.61, the relative viability (EMC-BAC-2; first compound 2.53 µM) was 0.538 and the relative viability (HARA; first compound 0.08 µM) was 0.462. It also gave a relative viability (HARA; first compound 0.253 µM) of 0.429, a relative viability (HARA; first compound 0.8 µM) of 0.217 and a relative viability (HARA; first compound 2.53 µM) of 0.489. It also gave a relative viability (HCC-44; first compound 0.08 µM) of 0.167, a relative viability (HCC-44; first compound 0.253 µM) of 0.201 and a relative viability (HCC-44; first compound 0.8 µM) of 0.273. The relative viability (HCC-44; first compound 2.53 µM) was 0.158, the relative viability (NCI-H522; first compound 0.08 µM) was 0.614 and the relative viability (NCI-H522; first compound 0.253 µM) was 0.648. The relative viability (NCI-H522; first compound 0.8 µM) was 0.672, the relative viability (NCI-H522; first compound 2.53 µM) was 0.723 and the relative viability (NCI-H838; first compound 0.08 µM) was 0.586. The relative viability (NCI-H838; first compound 0.253 µM) was 0.586, the relative viability (NCI-H838; first compound 0.8 µM) was 0.55 and the relative viability (NCI-H838; first compound 2.53 µM) was 0.567. The relative viability (NCI-H647; first compound 0.08 µM) was 0.472, the relative viability (NCI-H647; first compound 0.253 µM) was 0.512 and the relative viability (NCI-H647; first compound 0.8 µM) was 0.37. For the same compound, the relative viability (NCI-H647; first compound 2.53 µM) was 0.531, the relative viability (NCI-H3122; first compound 0.08 µM) was 0.378 and the relative viability (NCI-H3122; first compound 0.8 µM) was 0.408. For the same compound, the relative viability (NCI-H3122; first compound 2.53 µM) was 0.373, the relative viability (NCI-H650; first compound 0.08 µM) was 0.445 and the relative viability (NCI-H650; first compound 0.253 µM) was 0.389. The relative viability (NCI-H650; first compound 0.8 µM) was 0.508, the relative viability (NCI-H650; first compound 2.53 µM) was 0.461 and the relative viability (NCI-H1395; first compound 0.08 µM) was 0.43. It also gave a relative viability (NCI-H1395; first compound 0.253 µM) of 0.45, a relative viability (NCI-H1395; first compound 0.8 µM) of 0.464 and a relative viability (NCI-H1395; first compound 2.53 µM) of 0.486. For the same compound, the relative viability (NCI-H596; first compound 0.08 µM) was 0.842, the relative viability (NCI-H596; first compound 0.253 µM) was 0.786 and the relative viability (NCI-H596; first compound 0.8 µM) was 0.794. For the same compound, the relative viability (NCI-H596; first compound 2.53 µM) was 0.805, the relative viability (NCI-H2126; first compound 0.08 µM) was 0.534 and the relative viability (NCI-H2126; first compound 0.8 µM) was 0.518. For the same compound, the relative viability (NCI-H2126; first compound 2.53 µM) was 0.575, the relative viability (201T; first compound 0.08 µM) was 0.477 and the relative viability (201T; first compound 0.253 µM) was 0.451. It also gave a relative viability (201T; first compound 0.8 µM) of 0.441, a relative viability (201T; first compound 2.53 µM) of 0.442 and a relative viability (LCLC-103H; first compound 0.08 µM) of 0.357. The relative viability (LCLC-103H; first compound 0.253 µM) was 0.314, the relative viability (LCLC-103H; first compound 0.8 µM) was 0.315 and the relative viability (LCLC-103H; first compound 2.53 µM) was 0.333.
